Here are results for 12 compounds from patent US8901118B2, “Compounds and methods for kinase modulation, and indications therefor” (Plexxikon Inc., priority 2010, dated 2014).

SMILES strings stand for the structures.

Data set [1] in a line: Relative solubility by turbidity in aqueous buffers (pH 1.5, 4.5, 6.8, 7.4). Format: physicochemical. The note with it: for turbidity threshold (L, M, H) 1.4: pH 1.5 (SGF); for turbidity threshold (L, M, H) 4.5: pH 4.5 (SIF); for turbidity threshold (L, M, H) 6.8: pH 6.8 (SIF); for turbidity threshold (L, M, H) 7.4: pH 7.4 (HEPES). In short, it runs like this:
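Twofold DMSO dilutions of a 25 mM stock were spiked into SGF (0.5M NaCl, pH 1.5), SIF (0.05M NaH2PO4, pH 4.5 and 6.8) or HEPES buffer (10 mM HEPES, 150 mM NaCl, pH 7.4). Absorbance was read at 490, 535 and 650 nm. The endpoint is the concentration crossing O.D. 0.01, averaged across wavelengths.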

In data set [2] the target is CYP3A4(BFC) (Homo sapiens, UniProt P08684). As to the kind of experiment: CYP3A4(BFC) inhibition. Format: in vitro ADME. To be noted: CYP3A4, substrate BFC; read-out: Cyp IC50 3A4(BFC). A digest of the protocol: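 Inhibition of human CYP3A4 with the BFC substrate was measured by fluorescence loss of the metabolized product. Compounds at 100 mM in DMSO were diluted 1 μL into 82 μL acetonitrile, then 11 μL into 204 μL cofactor mix with NADPH regeneration solutions, and serially diluted 1:1 to 10 points. Plates were incubated 30 min at 37° C and read at 409 ex/460 em to obtain IC50.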
CYP3A4(BFC), sequence (P08684 whole entry): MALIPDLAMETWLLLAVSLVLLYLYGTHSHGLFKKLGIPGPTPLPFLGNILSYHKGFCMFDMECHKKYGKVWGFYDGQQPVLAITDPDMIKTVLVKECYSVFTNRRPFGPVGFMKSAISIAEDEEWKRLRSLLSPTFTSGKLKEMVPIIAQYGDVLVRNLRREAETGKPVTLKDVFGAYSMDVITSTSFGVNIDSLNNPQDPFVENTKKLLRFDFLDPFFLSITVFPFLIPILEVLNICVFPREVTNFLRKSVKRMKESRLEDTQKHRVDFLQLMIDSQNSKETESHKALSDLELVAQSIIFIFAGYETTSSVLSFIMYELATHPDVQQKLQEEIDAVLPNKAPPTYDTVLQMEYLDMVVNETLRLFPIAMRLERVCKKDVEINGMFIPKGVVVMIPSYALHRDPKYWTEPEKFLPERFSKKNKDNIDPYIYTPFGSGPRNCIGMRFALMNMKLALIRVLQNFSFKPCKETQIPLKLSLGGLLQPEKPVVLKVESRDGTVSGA

Usually IC50 stands for the midpoint of a concentration-inhibition curve. As to `O=C(c1ccc(NC2CCC(F)(F)CC2)nc1)c1c[nH]c2ncnc(NC3CC3)c12` [Compound P-4088, [4-(cyclopropylamino)-7H-pyrrolo[2,3-d]pyrimidin-5-yl]-[6-[(4,4-difluorocyclohexyl)amino]-3-pyridyl]methanone], in data set [1], the “turbidity threshold (L, M, H) 1.4” value is recorded as “H (high solubility if the threshold concentration is >250 μm)”; the “turbidity threshold (L, M, H) 4.5” value is recorded as “M (moderate solubility if the threshold concentration is 31.3 μM to 250 μM)”; the “turbidity threshold (L, M, H) 6.8” value was “M (moderate solubility if the threshold concentration is 31.3 μM to 250 μM)”; the “turbidity threshold (L, M, H) 7.4” value is reported as “M (moderate solubility if the threshold concentration is 31.3 μM to 250 μM)”. Besides, the IC50 in data set [2] was more than 10 µM.

For the compound `Fc1cc(Cc2c[nH]c3ncnc(NC4CC4)c23)cnc1NC1CCC(F)(F)CC1` [Compound P-4127, N-cyclopropyl-5-[[6-[(4,4-difluorocyclohexyl)amino]-5-fluoro-3-pyridyl]methyl]-7H-pyrrolo[2,3-d]pyrimidin-4-amine], in data set [1], the “turbidity threshold (L, M, H) 1.4” value is “H (high solubility if the threshold concentration is >250 μm)”; the “turbidity threshold (L, M, H) 4.5” value was “M (moderate solubility if the threshold concentration is 31.3 μM to 250 μM)”; the “turbidity threshold (L, M, H) 6.8” value is “M (moderate solubility if the threshold concentration is 31.3 μM to 250 μM)”; the “turbidity threshold (L, M, H) 7.4” value is recorded as “M (moderate solubility if the threshold concentration is 31.3 μM to 250 μM)”. For the same compound, in data set [2], the IC50 is less than 5 µM.

On to `COc1ccc(Nc2ccc(C(=O)c3c[nH]c4ncnc(N[C@@H](C)c5ccc(F)cc5)c34)c(F)n2)cn1` [Compound P-4072, [2-fluoro-6-[(6-methoxy-3-pyridyl)amino]-3-pyridyl]-[4-[[(1S)-1-(4-fluorophenyl)ethyl]amino]-7H-pyrrolo[2,3-d]pyrimidin-5-yl]methanone], for which, in data set [1], the “turbidity threshold (L, M, H) 1.4” value is on record as “M (moderate solubility if the threshold concentration is 31.3 μM to 250 μM)”; the “turbidity threshold (L, M, H) 4.5” value is reported as “L (low solubility if the threshold concentration is <31.3 μM)”; the “turbidity threshold (L, M, H) 6.8” value is listed as “L (low solubility if the threshold concentration is <31.3 μM)”; the “turbidity threshold (L, M, H) 7.4” value is “L (low solubility if the threshold concentration is <31.3 μM)”. Besides, the IC50 in data set [2] was more than 10 µM.

For `COc1ccc(Nc2ccc(C(=O)c3c[nH]c4ncnc(NC(C)(C)C)c34)c(F)n2)cn1` [Compound P-4055, [4-(tert-butylamino)-7H-pyrrolo[2,3-d]pyrimidin-5-yl]-[2-fluoro-6-[(6-methoxy-3-pyridyl)amino]-3-pyridyl]methanone], in data set [1], the “turbidity threshold (L, M, H) 1.4” value is on record as “M (moderate solubility if the threshold concentration is 31.3 μM to 250 μM)”; the “turbidity threshold (L, M, H) 4.5” value was “M (moderate solubility if the threshold concentration is 31.3 μM to 250 μM)”; the “turbidity threshold (L, M, H) 6.8” value is given as “L (low solubility if the threshold concentration is <31.3 μM)”; the “turbidity threshold (L, M, H) 7.4” value was “L (low solubility if the threshold concentration is <31.3 μM)”. Further, in data set [2], the IC50 is more than 10 µM.

Turning to `COc1cncc(Nc2ccc(C(=O)c3c[nH]c4ncnc(NCC(F)(F)F)c34)c(F)n2)c1` [Compound P-4103, [2-fluoro-6-[(5-methoxy-3-pyridyl)amino]-3-pyridyl]-[4-(2,2,2-trifluoroethylamino)-7H-pyrrolo[2,3-d]pyrimidin-5-yl]methanone], in data set [1], the “turbidity threshold (L, M, H) 1.4” value is “L (low solubility if the threshold concentration is <31.3 μM)”; the “turbidity threshold (L, M, H) 4.5” value is given as “M (moderate solubility if the threshold concentration is 31.3 μM to 250 μM)”; the “turbidity threshold (L, M, H) 6.8” value is given as “M (moderate solubility if the threshold concentration is 31.3 μM to 250 μM)”; the “turbidity threshold (L, M, H) 7.4” value is reported as “M (moderate solubility if the threshold concentration is 31.3 μM to 250 μM)”. Besides, in data set [2], the IC50 was more than 10 µM.

`CNc1ncnc2[nH]cc(C(=O)c3ccc(Nc4ccc(OC)nc4)nc3F)c12` [Compound P-4083, [2-fluoro-6-[(6-methoxy-3-pyridyl)amino]-3-pyridyl]-[4-(methylamino)-7H-pyrrolo[2,3-d]pyrimidin-5-yl]methanone]: in data set [1], the “turbidity threshold (L, M, H) 1.4” value is given as “M (moderate solubility if the threshold concentration is 31.3 μM to 250 μM)”; the “turbidity threshold (L, M, H) 4.5” value was “M (moderate solubility if the threshold concentration is 31.3 μM to 250 μM)”; the “turbidity threshold (L, M, H) 6.8” value is listed as “M (moderate solubility if the threshold concentration is 31.3 μM to 250 μM)”; the “turbidity threshold (L, M, H) 7.4” value is listed as “H (high solubility if the threshold concentration is >250 μm)”. Moreover, the IC50 in data set [2] was more than 10 µM.

`CNc1ncnc2[nH]cc(C(=O)c3ccc(NC4CCC(F)(F)CC4)nc3Cl)c12` [Compound P-4058, [2-chloro-6-[(4,4-difluorocyclohexyl)amino]-3-pyridyl]-[4-(methylamino)-7H-pyrrolo[2,3-d]pyrimidin-5-yl]methanone]: in data set [1], the “turbidity threshold (L, M, H) 1.4” value is reported as “M (moderate solubility if the threshold concentration is 31.3 μM to 250 μM)”; the “turbidity threshold (L, M, H) 4.5” value is on record as “L (low solubility if the threshold concentration is <31.3 μM)”; the “turbidity threshold (L, M, H) 6.8” value is “L (low solubility if the threshold concentration is <31.3 μM)”; the “turbidity threshold (L, M, H) 7.4” value is “L (low solubility if the threshold concentration is <31.3 μM)”. Also, the IC50 in data set [2] was more than 10 µM.

Regarding `CCc1ccc(Nc2ccc(C(=O)c3c[nH]c4ncnc(NC5CCC5)c34)c(F)n2)cn1` [Compound P-4095, [4-(cyclobutylamino)-7H-pyrrolo[2,3-d]pyrimidin-5-yl]-[6-[(6-ethyl-3-pyridyl)amino]-2-fluoro-3-pyridyl]methanone], in data set [1], the “turbidity threshold (L, M, H) 1.4” value is “M (moderate solubility if the threshold concentration is 31.3 μM to 250 μM)”; the “turbidity threshold (L, M, H) 4.5” value was “M (moderate solubility if the threshold concentration is 31.3 μM to 250 μM)”; the “turbidity threshold (L, M, H) 6.8” value was “M (moderate solubility if the threshold concentration is 31.3 μM to 250 μM)”; the “turbidity threshold (L, M, H) 7.4” value is listed as “M (moderate solubility if the threshold concentration is 31.3 μM to 250 μM)”. Besides, the IC50 in data set [2] was more than 10 µM.

Consider `COc1ccc(Nc2ccc(C(=O)c3c[nH]c4ncnc(N5CCOCC5)c34)c(F)n2)cn1` [Compound P-4070, [2-fluoro-6-[(6-methoxy-3-pyridyl)amino]-3-pyridyl]-(4-morpholino-7H-pyrrolo[2,3-d]pyrimidin-5-yl)methanone], for which, in data set [1], the “turbidity threshold (L, M, H) 1.4” value is given as “H (high solubility if the threshold concentration is >250 μm)”; the “turbidity threshold (L, M, H) 4.5” value is reported as “M (moderate solubility if the threshold concentration is 31.3 μM to 250 μM)”; the “turbidity threshold (L, M, H) 6.8” value is “M (moderate solubility if the threshold concentration is 31.3 μM to 250 μM)”; the “turbidity threshold (L, M, H) 7.4” value is recorded as “M (moderate solubility if the threshold concentration is 31.3 μM to 250 μM)”. In data set [2], the IC50 is more than 10 µM.

As to `O=C(c1ccc(NC2CCC(F)(F)CC2)nc1Cl)c1c[nH]c2ncnc(NC3CC3)c12` [Compound P-4059, [2-chloro-6-[(4,4-difluorocyclohexyl)amino]-3-pyridyl]-[4-(cyclopropylamino)-7H-pyrrolo[2,3-d]pyrimidin-5-yl]methanone], in data set [1], the “turbidity threshold (L, M, H) 1.4” value is on record as “M (moderate solubility if the threshold concentration is 31.3 μM to 250 μM)”; the “turbidity threshold (L, M, H) 4.5” value is “L (low solubility if the threshold concentration is <31.3 μM)”; the “turbidity threshold (L, M, H) 6.8” value is “L (low solubility if the threshold concentration is <31.3 μM)”; the “turbidity threshold (L, M, H) 7.4” value is “L (low solubility if the threshold concentration is <31.3 μM)”. Besides, the IC50 in data set [2] was more than 10 µM.

Turning to `CNc1ncnc2[nH]cc(C(=O)c3ccc(Nc4ccc(C(F)(F)F)nc4)nc3F)c12` [Compound P-4092, [2-fluoro-6-[[6-(trifluoromethyl)-3-pyridyl]amino]-3-pyridyl]-[4-(methylamino)-7H-pyrrolo[2,3-d]pyrimidin-5-yl]methanone], in data set [1], the “turbidity threshold (L, M, H) 1.4” value is “M (moderate solubility if the threshold concentration is 31.3 μM to 250 μM)”; the “turbidity threshold (L, M, H) 4.5” value is on record as “M (moderate solubility if the threshold concentration is 31.3 μM to 250 μM)”; the “turbidity threshold (L, M, H) 6.8” value is reported as “M (moderate solubility if the threshold concentration is 31.3 μM to 250 μM)”; the “turbidity threshold (L, M, H) 7.4” value is “M (moderate solubility if the threshold concentration is 31.3 μM to 250 μM)”. For the same compound, the IC50 in data set [2] was more than 10 µM.

For `CCc1ccc(Nc2ccc(C(=O)c3c[nH]c4ncnc(NC5CCCC5)c34)c(F)n2)cn1` [Compound P-4099, [4-(cyclopentylamino)-7H-pyrrolo[2,3-d]pyrimidin-5-yl]-[6-[(6-ethyl-3-pyridyl)amino]-2-fluoro-3-pyridyl]methanone], in data set [1], the “turbidity threshold (L, M, H) 1.4” value is listed as “H (high solubility if the threshold concentration is >250 μm)”; the “turbidity threshold (L, M, H) 4.5” value is on record as “L (low solubility if the threshold concentration is <31.3 μM)”; the “turbidity threshold (L, M, H) 6.8” value was “L (low solubility if the threshold concentration is <31.3 μM)”; the “turbidity threshold (L, M, H) 7.4” value is listed as “L (low solubility if the threshold concentration is <31.3 μM)”. Further, the IC50 in data set [2] is more than 10 µM.
